# Target: T1, human PAH with the R408W mutation (Homo sapiens, UniProt P00439, R408W)
# T1 construct: expressed in transfected cells
# T1 sequence (P00439 1-452 R408W): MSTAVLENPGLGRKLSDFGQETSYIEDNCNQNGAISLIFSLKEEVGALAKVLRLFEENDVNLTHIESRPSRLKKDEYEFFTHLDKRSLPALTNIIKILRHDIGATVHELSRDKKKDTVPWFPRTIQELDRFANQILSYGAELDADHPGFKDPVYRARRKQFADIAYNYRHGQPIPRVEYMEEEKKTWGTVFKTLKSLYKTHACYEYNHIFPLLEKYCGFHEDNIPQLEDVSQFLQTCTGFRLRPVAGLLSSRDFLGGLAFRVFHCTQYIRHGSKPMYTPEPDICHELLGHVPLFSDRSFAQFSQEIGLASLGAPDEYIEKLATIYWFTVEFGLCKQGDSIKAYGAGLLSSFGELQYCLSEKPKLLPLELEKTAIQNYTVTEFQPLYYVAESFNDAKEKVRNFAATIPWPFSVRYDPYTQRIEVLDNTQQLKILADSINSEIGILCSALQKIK
# Test: Cell Based Phenylalanine Flux Assay
# Details: A375 cells expressing human R408W PAH; 24 hrs with compound; 13C-Tyrosine by LC-MS; average where tested multiple times; read-out: AC50
row,AC50 [µM],SMILES
1,> 5,Cc1nnc(CCC(=O)N2CCc3[nH]cnc3C2c2nc3ccccc3s2)o1 (centres unmarked) [listing 1 of 2 here]
2,> 5,O=C(Cc1coc(C(F)F)n1)N1CCc2[nH]cnc2C1c1nc2ccccc2s1 (centres unmarked) [listing 1 of 2 here]
3,> 5,O=C(CCc1nnc(C(F)F)o1)N1CCc2[nH]cnc2C1c1nc2ccccc2s1 (centres unmarked) [listing 1 of 2 here]
4,> 5,Cc1ncc(CC(=O)N2CCc3[nH]cnc3C2c2nc3ccccc3s2)o1 (centres unmarked) [listing 1 of 2 here]
5,> 5,O=C(Cc1ccccn1)N1CCc2[nH]cnc2C1c1nc2ccccc2s1 (centres unmarked) [listing 1 of 2 here]
6,> 5,O=C(Cc1cnn2ccccc12)N1CCc2[nH]cnc2C1c1nc2ccccc2s1 (centres unmarked) [listing 1 of 2 here]
7,> 5,O=C(Cc1cscn1)N1CCc2[nH]cnc2C1c1nc2ccccc2s1 (centres unmarked)
8,> 5,O=C(Cc1cncs1)N1CCc2[nH]cnc2C1c1nc2ccccc2s1 (centres unmarked) [listing 1 of 2 here]
9,> 5,O=C(c1cnn(CC(F)(F)F)c1)N1CCc2[nH]cnc2C1c1nc2ccccc2s1 (centres unmarked) [listing 1 of 2 here]
10,> 5,CS(=O)(=O)N1CC(C(=O)N2CCc3[nH]cnc3C2c2nc3ccccc3s2)C1 (centres unmarked) [listing 1 of 2 here]
11,> 5,O=C(c1cnco1)N1CCCc2[nH]cnc2C1c1nc2ccccc2s1 (centres unmarked) [listing 1 of 2 here]
12,> 5,Cc1nc(CCN2CC(F)C2)oc1C(=O)N1CCc2[nH]cnc2C1c1nc2ccccc2s1 (centres unmarked) [listing 1 of 2 here]
13,> 5,Cc1nc(CCC2CC2)oc1C(=O)N1CCCc2[nH]cnc2C1c1nc2ccccc2s1 (centres unmarked)
14,> 5,Cc1nc(-c2ccccn2)c(C(=O)N2CCc3[nH]cnc3C2c2nc3ccccc3s2)o1 (centres unmarked) [listing 1 of 2 here]
15,> 5,O=C(c1oc(-c2ccccc2)nc1-c1ccccc1)N1CCc2[nH]cnc2C1c1nc2ccccc2s1 (centres unmarked) [listing 1 of 2 here]
16,> 5,Cn1cc(-c2cccc(C(=O)N3CCc4[nH]cnc4C3c3nc4ccccc4s3)c2)cn1 (centres unmarked)
17,1 to 5,O=C(c1nc(C(F)(F)F)co1)N1CCc2[nH]cnc2C1c1nc2ccccc2s1 (centres unmarked)
18,> 5,O=C(c1nc(Cl)cs1)N1CCc2[nH]cnc2C1c1nc2c(F)cccc2s1 (centres unmarked) [listing 1 of 2 here]
19,> 5,Cc1nc(N2CCOCC2)oc1C(=O)N1CCCc2[nH]cnc2C1c1nc2ccccc2s1 (centres unmarked) [listing 1 of 2 here]
20,> 5,Cc1nc(-c2ccccn2)sc1C(=O)N1CCc2[nH]cnc2C1c1nc2ccccc2s1 (centres unmarked) [listing 1 of 2 here]
21,> 5,O=C(c1nnc(CCN2CC(F)C2)o1)N1CCc2[nH]cnc2C1c1nc2ccccc2s1 (centres unmarked) [listing 1 of 2 here]
22,> 5,O=C(c1nnc(-c2ccccn2)o1)N1CCCc2[nH]cnc2C1c1nc2ccccc2s1 (centres unmarked)
23,> 5,O=C(c1cnn2cc(N3CCCC3)ccc12)N1CCc2[nH]cnc2C1c1nc2ccccc2s1 (centres unmarked) [listing 1 of 2 here]
24,> 5,O=C(C1CC1F)N1CCc2[nH]cnc2C1c1nc2ccccc2s1 (centres unmarked)

row,AC50 [µM],SMILES
1,> 5,O=C(N1CCC(c2ccccc2)C1)N1CCc2[nH]cnc2C1c1nc2ccccc2s1 (centres unmarked) [listing 1 of 3 here]
2,> 5,O=C(N1CCC(c2ccccc2)C1)N1CCc2[nH]cnc2C1c1nc2ccccc2s1 (centres unmarked) [listing 2 of 3 here]
3,> 5,O=C(Nc1ccc(F)cc1)N1CCc2[nH]cnc2C1c1nc2ccccc2s1 (centres unmarked) [listing 1 of 2 here]
4,> 5,Cc1ncc(C(=O)N2CCc3[nH]cnc3C2c2nc3c(F)cccc3s2)o1 (centres unmarked)
5,> 5,Cc1nc(-c2ccccn2)c(C(=O)N2CCc3[nH]cnc3C2c2nc3c(F)cccc3s2)o1 (centres unmarked) [listing 1 of 2 here]
6,> 5,O=C(c1ncco1)N1CCc2[nH]cnc2C1c1nc2cc(F)ccc2s1 (centres unmarked) [listing 1 of 2 here]
7,> 5,Cc1nnc(C(=O)N2CCc3[nH]cnc3C2c2nc3cc(F)ccc3s2)s1 (centres unmarked) [listing 1 of 2 here]
8,> 5,O=C(c1ccno1)N1CCc2[nH]cnc2C1c1nc2ccc(F)cc2s1 (centres unmarked) [listing 1 of 2 here]
9,> 5,O=C(c1ncco1)N1CCc2[nH]cnc2C1c1nc2ccc(F)cc2s1 (centres unmarked) [listing 1 of 2 here]
10,> 5,O=C(c1cnn2cc(F)ccc12)N1CCc2[nH]cnc2C1c1nc2ccc(F)cc2s1 (centres unmarked) [listing 1 of 2 here]
11,> 5,O=C(c1cnn2cc(CO)ccc12)N1CCc2[nH]cnc2C1c1nc2ccccc2s1 (centres unmarked) [listing 1 of 2 here]
12,> 5,Cc1nc(CCCN(C)C)oc1C(=O)N1CCc2[nH]cnc2C1c1nc2ccccc2s1 (centres unmarked) [listing 1 of 2 here]
13,> 5,CNCc1ccc2c(C(=O)N3CCc4[nH]cnc4C3c3nc4ccccc4s3)cnn2c1 (centres unmarked) [listing 1 of 2 here]
14,1 to 5,Cc1nnc(CCC(=O)N2CCc3[nH]cnc3C2c2nc3ccccc3s2)o1 (centres unmarked) [listing 2 of 2 here]
15,1 to 5,O=C(Cc1coc(C(F)F)n1)N1CCc2[nH]cnc2C1c1nc2ccccc2s1 (centres unmarked) [listing 2 of 2 here]
16,1 to 5,O=C(CCc1nnc(C(F)F)o1)N1CCc2[nH]cnc2C1c1nc2ccccc2s1 (centres unmarked) [listing 2 of 2 here]
17,1 to 5,Cc1ncc(CC(=O)N2CCc3[nH]cnc3C2c2nc3ccccc3s2)o1 (centres unmarked) [listing 2 of 2 here]
18,1 to 5,O=C(Cc1cnn2ccccc12)N1CCc2[nH]cnc2C1c1nc2ccccc2s1 (centres unmarked) [listing 2 of 2 here]
19,1 to 5,O=C(Cc1cncs1)N1CCc2[nH]cnc2C1c1nc2ccccc2s1 (centres unmarked) [listing 2 of 2 here]
20,> 5,O=C(Cn1cncn1)N1CCc2[nH]cnc2C1c1nc2ccccc2s1 (centres unmarked)
21,1 to 5,O=C(Cc1ccccn1)N1CCc2[nH]cnc2C1c1nc2ccccc2s1 (centres unmarked) [listing 2 of 2 here]
22,> 5,Cc1nnc(CC(=O)N2CCc3[nH]cnc3C2c2nc3ccccc3s2)o1 (centres unmarked)
23,1 to 5,O=C(Cc1cnco1)N1CCc2[nH]cnc2C1c1nc2ccccc2s1 (centres unmarked)
24,1 to 5,Cc1ncoc1CC(=O)N1CCc2[nH]cnc2C1c1nc2ccccc2s1 (centres unmarked)

row,AC50 [µM],SMILES
1,1 to 5,O=C(c1cnn(CC(F)(F)F)c1)N1CCc2[nH]cnc2C1c1nc2ccccc2s1 (centres unmarked) [listing 2 of 2 here]
2,1 to 5,CS(=O)(=O)N1CC(C(=O)N2CCc3[nH]cnc3C2c2nc3ccccc3s2)C1 (centres unmarked) [listing 2 of 2 here]
3,> 5,O=C(c1cnc[nH]1)N1CCc2[nH]cnc2C1c1nc2ccccc2s1 (centres unmarked)
4,1 to 5,O=C(c1nsc2ccccc12)N1CCc2[nH]cnc2C1c1nc2ccccc2s1 (centres unmarked)
5,1 to 5,O=C(c1cnco1)N1CCCc2[nH]cnc2C1c1nc2ccccc2s1 (centres unmarked) [listing 2 of 2 here]
6,1 to 5,Cc1nc(CCN2CC(F)C2)oc1C(=O)N1CCc2[nH]cnc2C1c1nc2ccccc2s1 (centres unmarked) [listing 2 of 2 here]
7,> 5,O=C(c1oc(C=CC2CC2)nc1C(F)(F)F)N1CCCc2[nH]cnc2C1c1nc2ccccc2s1 (centres unmarked)
8,> 5,Cc1nc(C=CC2CC2)oc1C(=O)N1CCCc2[nH]cnc2C1c1nc2ccccc2s1 (centres unmarked)
9,1 to 5,Cc1nc(-c2ccccn2)c(C(=O)N2CCc3[nH]cnc3C2c2nc3ccccc3s2)o1 (centres unmarked) [listing 2 of 2 here]
10,1 to 5,O=C(c1oc(-c2ccccc2)nc1-c1ccccc1)N1CCc2[nH]cnc2C1c1nc2ccccc2s1 (centres unmarked) [listing 2 of 2 here]
11,1 to 5,COC1CN(C(=O)N2CCc3[nH]cnc3C2c2nc3ccccc3s2)C1 (centres unmarked)
12,> 5,Cc1nc(C(C)(C)O)oc1C(=O)N1CCCc2[nH]cnc2C1c1nc2ccccc2s1 (centres unmarked)
13,1 to 5,CC(C)(O)c1nnc(C(=O)N2CCc3[nH]cnc3C2c2nc3c(F)cccc3s2)o1 (centres unmarked)
14,> 5,O=C(c1ocnc1-c1ccccn1)N1CCCc2[nH]cnc2C1c1nc2ccccc2s1 (centres unmarked)
15,1 to 5,O=C(c1nc(Cl)cs1)N1CCc2[nH]cnc2C1c1nc2c(F)cccc2s1 (centres unmarked) [listing 2 of 2 here]
16,> 5,Cc1nc(CN2CCOCC2)oc1C(=O)N1CCCc2[nH]cnc2C1c1nc2ccccc2s1 (centres unmarked)
17,1 to 5,Cc1nc(N2CCOCC2)oc1C(=O)N1CCCc2[nH]cnc2C1c1nc2ccccc2s1 (centres unmarked) [listing 2 of 2 here]
18,1 to 5,Cc1nc(-c2ccccn2)oc1C(=O)N1CCCc2[nH]cnc2C1c1nc2ccccc2s1 (centres unmarked)
19,1 to 5,Cc1nc(-c2ccccn2)sc1C(=O)N1CCc2[nH]cnc2C1c1nc2ccccc2s1 (centres unmarked) [listing 2 of 2 here]
20,1 to 5,O=C(c1nnc(CCN2CC(F)C2)o1)N1CCc2[nH]cnc2C1c1nc2ccccc2s1 (centres unmarked) [listing 2 of 2 here]
21,1 to 5,O=C(c1nnc(N2CC(F)C2)o1)N1CCc2[nH]cnc2C1c1nc2ccccc2s1 (centres unmarked)
22,1 to 5,CN1CCN(c2nnc(C(=O)N3CCc4[nH]cnc4C3c3nc4ccccc4s3)o2)CC1 (centres unmarked)
23,1 to 5,c1ccc2sc(C3c4nc[nH]c4CCN3c3nnc(C4CC4)o3)nc2c1 (centres unmarked)
24,1 to 5,Cc1nnc(C(=O)N2CCc3[nH]cnc3C2c2nc3ccccc3s2)o1 (centres unmarked)

row,AC50 [µM],SMILES
1,1 to 5,O=C(c1cnn2cc(N3CCCC3)ccc12)N1CCc2[nH]cnc2C1c1nc2ccccc2s1 (centres unmarked) [listing 2 of 2 here]
2,1 to 5,O=C(C1CC1(F)F)N1CCc2[nH]cnc2C1c1nc2c(F)cccc2s1 (centres unmarked)
3,1 to 5,O=C(N1CCC(c2ccccc2)C1)N1CCc2[nH]cnc2C1c1nc2ccccc2s1 (centres unmarked) [listing 3 of 3 here]
4,> 5,CC1(C)CN(C(=O)c2cnco2)C(c2nc3c(F)cccc3s2)c2nc[nH]c21 (centres unmarked)
5,> 5,Cc1ncoc1C(=O)N1CC(C)(C)c2[nH]cnc2C1c1nc2ccccc2s1 (centres unmarked)
6,1 to 5,O=C(Nc1ccc(F)cc1)N1CCc2[nH]cnc2C1c1nc2ccccc2s1 (centres unmarked) [listing 2 of 2 here]
7,1 to 5,Cc1nc(-c2ccccn2)c(C(=O)N2CCc3[nH]cnc3C2c2nc3c(F)cccc3s2)o1 (centres unmarked) [listing 2 of 2 here]
8,1 to 5,COCCNc1nnc(C(=O)N2CCc3[nH]cnc3C2c2nc3ccccc3s2)o1 (centres unmarked)
9,> 5,Cc1nc(NC2CC2)oc1C(=O)N1CCCc2[nH]cnc2C1c1nc2ccccc2s1 (centres unmarked)
10,1 to 5,O=C(c1ncco1)N1CCc2[nH]cnc2C1c1nc2cc(F)ccc2s1 (centres unmarked) [listing 2 of 2 here]
11,1 to 5,O=C(c1cnco1)N1CCc2[nH]cnc2C1c1nc2cc(F)ccc2s1 (centres unmarked)
12,1 to 5,Cc1nnc(C(=O)N2CCc3[nH]cnc3C2c2nc3cc(F)ccc3s2)s1 (centres unmarked) [listing 2 of 2 here]
13,1 to 5,O=C(c1ccno1)N1CCc2[nH]cnc2C1c1nc2ccc(F)cc2s1 (centres unmarked) [listing 2 of 2 here]
14,1 to 5,O=C(c1ncco1)N1CCc2[nH]cnc2C1c1nc2ccc(F)cc2s1 (centres unmarked) [listing 2 of 2 here]
15,1 to 5,O=C(c1cnn2cc(F)ccc12)N1CCc2[nH]cnc2C1c1nc2ccc(F)cc2s1 (centres unmarked) [listing 2 of 2 here]
16,1 to 5,O=C(c1cnn2cc(CO)ccc12)N1CCc2[nH]cnc2C1c1nc2ccccc2s1 (centres unmarked) [listing 2 of 2 here]
17,1 to 5,Cc1nc(CCCN(C)C)oc1C(=O)N1CCc2[nH]cnc2C1c1nc2ccccc2s1 (centres unmarked) [listing 2 of 2 here]
18,1 to 5,O=C(N1CCC(O)C1)N1CCc2[nH]cnc2C1c1nc2ccccc2s1 (centres unmarked)
19,1 to 5,CNCc1ccc2c(C(=O)N3CCc4[nH]cnc4C3c3nc4ccccc4s3)cnn2c1 (centres unmarked) [listing 2 of 2 here]
20,> 5,COCc1ccc2c(C(=O)N3CC4(CC4)c4[nH]cnc4C3c3nc4ccccc4s3)cnn2c1 (centres unmarked) [listing 1 of 2 here]
21,> 5,O=C(c1cnco1)N1CC2(CC2)c2[nH]cnc2C1c1nc2c(F)cccc2s1 (centres unmarked) [listing 1 of 2 here]
22,1 to 5,COCc1ccc2c(C(=O)N3CC4(CC4)c4[nH]cnc4C3c3nc4ccccc4s3)cnn2c1 (centres unmarked) [listing 2 of 2 here]
23,1 to 5,O=C(c1cnco1)N1CC2(CC2)c2[nH]cnc2C1c1nc2c(F)cccc2s1 (centres unmarked) [listing 2 of 2 here]

# — US20250171438A1 (Agios Pharmaceuticals, Inc., priority 2022, published 2025)
